Source: ChEMBL document CHEMBL4627352, “New acrylamide-sulfisoxazole conjugates as dihydropteroate synthase inhibitors” (Bioorg Med Chem, 2020)
Converted amounts (≈) assume the structure as drawn. The source made the active and inactive calls. The rule behind the calls is not given here.

Columns and labels:
[1] = test system: Syncephalastrum racemosum; assay: Potency index, ratio of amphotericin B MIC to compound MIC for Syncephalastrum racemosum assessed as inhibition of DHPS-mediated fungal growth incubated for 48 hrs by microbroth dilution method
Klebsiella pneumoniae [2] = assay: Potency index, ratio of sulfisoxazole MIC to compound MIC for Klebsiella pneumoniae assessed as inhibition of DHPS-mediated bacterial growth incubated for 24 hrs by microbroth dilution method
Klebsiella pneumoniae [3] = assay: Inhibition of DHPS in Klebsiella pneumoniae assessed as antibacterial activity by measuring inhibition zone at 5 mg/mL incubated for 24 hrs by disk diffusion method
Escherichia coli [4] = assay: Inhibition of DHPS in Escherichia coli assessed as antibacterial activity by measuring inhibition of bacterial growth incubated for 24 hrs by microbroth dilution method
[5] = test system: Escherichia coli ATCC 25922; assay: Inhibition of DHPS in Escherichia coli ATCC 25922 assessed as inhibition of bacterial growth incubated for 24 hrs in presence of folate precursor, pABA by microbroth dilution method
[6] = test system: Staphylococcus epidermidis; assay: Inhibition of DHPS in Staphylococcus epidermidis assessed as antibacterial activity by measuring inhibition of bacterial growth incubated for 24 hrs by microbroth dilution method
Proteus vulgaris [7] = assay: Inhibition of DHPS in Proteus vulgaris assessed as antibacterial activity by measuring inhibition of bacterial growth incubated for 24 hrs by microbroth dilution method
[8] = test system: Staphylococcus epidermidis; assay: Potency index, ratio of sulfisoxazole MIC to compound MIC for Staphylococcus epidermidis assessed as inhibition of DHPS-mediated bacterial growth incubated for 24 hrs by microbroth dilution method
Geotrichum candidum [9] = assay: Potency index, ratio of sulfisoxazole MIC to compound MIC for Geotrichum candidum assessed as inhibition of DHPS-mediated fungal growth incubated for 48 hrs by microbroth dilution method
Aspergillus fumigatus [10] = assay: Inhibition of DHPS in Aspergillus fumigatus assessed as antifungal activity by measuring inhibition zone at 5 mg/mL incubated for 48 hrs by disk diffusion method
Aspergillus fumigatus [11] = assay: Inhibition of DHPS in Aspergillus fumigatus assessed as antifungal activity by measuring inhibition of fungal growth incubated for 48 hrs by microbroth dilution method
[12] = test system: Syncephalastrum racemosum; assay: Inhibition of DHPS in Syncephalastrum racemosum assessed as antifungal activity by measuring inhibition zone at 5 mg/mL incubated for 48 hrs by disk diffusion method
Escherichia coli [13] = assay: Inhibition of DHPS in Escherichia coli assessed as antibacterial activity by measuring inhibition zone at 5 mg/mL incubated for 24 hrs by disk diffusion method
Bacillus subtilis [14] = assay: Inhibition of DHPS in Bacillus subtilis assessed as antibacterial activity by measuring inhibition zone at 5 mg/mL incubated for 24 hrs by disk diffusion method
Aspergillus fumigatus [15] = assay: Potency index, ratio of sulfisoxazole MIC to compound MIC for Aspergillus fumigatus assessed as inhibition of DHPS-mediated fungal growth incubated for 48 hrs by microbroth dilution method
[16] = test system: Escherichia coli ATCC 25922; assay: Inhibition of DHPS in Escherichia coli ATCC 25922 assessed as inhibition of bacterial growth incubated for 24 hrs in presence of folate dependent metabolite, methionine by microbroth dilution method
Klebsiella pneumoniae [17] = assay: Inhibition of DHPS in Klebsiella pneumoniae assessed as antibacterial activity by measuring inhibition of bacterial growth incubated for 24 hrs by microbroth dilution method
[18] = test system: Syncephalastrum racemosum; assay: Inhibition of DHPS in Syncephalastrum racemosum assessed as antifungal activity by measuring inhibition of fungal growth incubated for 48 hrs by microbroth dilution method
Geotrichum candidum [19] = assay: Inhibition of DHPS in Geotrichum candidum assessed as antifungal activity by measuring inhibition of fungal growth incubated for 48 hrs by microbroth dilution method
Geotrichum candidum [20] = assay: Inhibition of DHPS in Geotrichum candidum assessed as antifungal activity by measuring inhibition zone at 5 mg/mL incubated for 48 hrs by disk diffusion method
Proteus vulgaris [21] = assay: Inhibition of DHPS in Proteus vulgaris assessed as antibacterial activity by measuring inhibition zone at 5 mg/mL incubated for 24 hrs by disk diffusion method
Streptococcus pneumoniae [22] = assay: Inhibition of DHPS in Streptococcus pneumoniae assessed as antibacterial activity by measuring inhibition of bacterial growth incubated for 24 hrs by microbroth dilution method
[23] = test system: Staphylococcus epidermidis; assay: Inhibition of DHPS in Staphylococcus epidermidis assessed as antibacterial activity by measuring inhibition zone at 5 mg/mL incubated for 24 hrs by disk diffusion method
Streptococcus pneumoniae [24] = assay: Inhibition of DHPS in Streptococcus pneumoniae assessed as antibacterial activity by measuring inhibition zone at 5 mg/mL incubated for 24 hrs by disk diffusion method
Streptococcus pneumoniae [25] = assay: Potency index, ratio of sulfisoxazole MIC to compound MIC for Streptococcus pneumoniae assessed as inhibition of DHPS-mediated bacterial growth incubated for 24 hrs by microbroth dilution method
Bacillus subtilis [26] = assay: Inhibition of DHPS in Bacillus subtilis assessed as antibacterial activity by measuring inhibition of bacterial growth incubated for 24 hrs by microbroth dilution method
Escherichia coli [27] = assay: Potency index, ratio of sulfisoxazole MIC to compound MIC for Escherichia coli assessed as inhibition of DHPS-mediated bacterial growth incubated for 24 hrs by microbroth dilution method

For `CN/C(S[C@@H]1O[C@H](COC(C)=O)[C@@H](OC(C)=O)[C@H](OC(C)=O)[C@H]1OC(C)=O)=C(/C#N)C(=O)Nc1ccc(S(=O)(=O)Nc2onc(C)c2C)cc1`, the Ratio [1] was 1, the Ratio (Klebsiella pneumoniae [2]) was 8 and the inhibition zone (IZ) (Klebsiella pneumoniae [3]) was 22.1 mm. The MIC (Escherichia coli [4]) was 3.9 µg/mL (≈ 5.29 µM), the inhibition [5] was “inactive” and the MIC [6] was 3.9 µg/mL (≈ 5.29 µM). It also gave an MIC (Proteus vulgaris [7]) of 7.81 µg/mL (≈ 10.6 µM), a Ratio [8] of 2 and a Ratio (Geotrichum candidum [9]) of 3 to 5. For the same molecule, the inhibition zone (IZ) (Aspergillus fumigatus [10]) was 19.3 mm, the MIC (Aspergillus fumigatus [11]) was 3.9 µg/mL (≈ 5.29 µM) and the inhibition zone (IZ) [12] was 19.9 mm. It also gave an inhibition zone (IZ) (Escherichia coli [13]) of 20.2 mm, an inhibition zone (IZ) (Bacillus subtilis [14]) of 23.4 mm and a Ratio (Aspergillus fumigatus [15]) of 4 to 6. For the same molecule, the inhibition [16] was “inactive”, the MIC (Klebsiella pneumoniae [17]) was 0.98 µg/mL (≈ 1.33 µM) and the MIC [18] was 3.9 µg/mL (≈ 5.29 µM). The MIC (Geotrichum candidum [19]) was 1.95 µg/mL (≈ 2.64 µM), the inhibition zone (IZ) (Geotrichum candidum [20]) was 21.2 mm and the inhibition zone (IZ) (Proteus vulgaris [21]) was 17.8 mm. The MIC (Streptococcus pneumoniae [22]) was 0.98 µg/mL (≈ 1.33 µM), the inhibition zone (IZ) [23] was 20.4 mm and the inhibition zone (IZ) (Streptococcus pneumoniae [24]) was 22.2 mm. The Ratio (Streptococcus pneumoniae [25]) was 2, the MIC (Bacillus subtilis [26]) was 0.98 µg/mL (≈ 1.33 µM) and the Ratio (Escherichia coli [27]) was 4.
